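These data come from cells grown in 96-well plates and exposed to compound for 48 hours at five concentrations. GI50 = concentration required for 50% inhibition of growth.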 Active and inactive are the calls of the source. Cut-off read from the data, not from the text of the source: active = GI50 up to about 1.1 µM and inactive = higher.

Among the test systems are 786-0; CCRF-CEM; HCT-116; HCT-15; HOP-92; Hs-578T; IGROV-1; K562; KM12; LOX IMVI; MCF7; MDA-MB-231; MDA-MB-435; MOLT-4; OVCAR-5; OVCAR-8; SK-MEL-2; SK-MEL-5; SW-620; UO-31.
Test in all cases: inhibition of tumour cell growth, NCI panel, 48 h

Turning to `NC(=O)C1=CC2C3C=CC2(O)C(=O)OC3O1` (stereo not given), the GI50 is 3.63 µM (inactive) in the experiment on 786-0; 1.8 µM (inactive) in the experiment on CCRF-CEM; 2.62 µM (inactive) in the experiment on HCT-116; 3.39 µM with HCT-15; 2.43 µM (inactive) in the experiment on HOP-92; 1.81 µM (inactive) in the experiment on Hs-578T. In addition, the GI50 was 2.92 µM (inactive) in the experiment with IGROV-1; 7.29 µM (inactive) in the experiment on K562; 2.94 µM (inactive) in the experiment with KM12; 2.14 µM (inactive) in the experiment on LOX IMVI; 3.28 µM (inactive) in the experiment on MCF7; 7.64 µM (inactive) in the experiment with MDA-MB-231. In addition, the GI50 is 3.27 µM (inactive) with MDA-MB-435; 1.88 µM (inactive) in the experiment with MOLT-4; 22.8 µM (inactive) with OVCAR-5; 2.46 µM (inactive) in the experiment with OVCAR-8; 3.57 µM (inactive) with SK-MEL-2; 2.38 µM (inactive) with SK-MEL-5. The GI50 with SW-620 was 4.02 µM (inactive); with UO-31, 3.67 µM (inactive).
For the compound `OC1c2c(ccc3c2CCC3)CC12Cc1ccccc1C2` (stereo not given), the GI50 in the experiment on 786-0 was 17.1 µM (inactive); in the experiment with CCRF-CEM, 23.2 µM (inactive); in the experiment with HCT-116, 16 µM (inactive); with HCT-15, 16.5 µM; in the experiment with HOP-92, 13 µM (inactive); with Hs-578T it was 16.6 µM (inactive). The GI50 with IGROV-1 is 17.7 µM (inactive); in the experiment with K562, 17.1 µM (inactive); with KM12, 14.9 µM (inactive); with LOX IMVI, 15.9 µM (inactive); with MCF7 it was 18 µM (inactive); in the experiment on MDA-MB-231 it was 15.2 µM (inactive). Further, the GI50 was 15.7 µM (inactive) with MDA-MB-435; 26.6 µM (inactive) in the experiment with MOLT-4; 17.2 µM (inactive) with OVCAR-5; 17.7 µM (inactive) with OVCAR-8; 15.3 µM (inactive) with SK-MEL-2; 15.6 µM (inactive) in the experiment with SK-MEL-5. The values for the GI50 in the experiment on SW-620 and with UO-31 were 17.7 µM (inactive) and 14.2 µM (inactive), respectively.
In the case of `C/C(C=O)=N\Nc1cc(C)c2ccccc2n1`, the GI50 in the experiment on 786-0 is 14.2 µM (inactive); in the experiment with CCRF-CEM it was 12 µM (inactive); in the experiment with HCT-116, 14.5 µM (inactive); in the experiment on HCT-15, 10 µM; in the experiment on HOP-92, 15.1 µM (inactive); in the experiment on Hs-578T, 17.3 µM (inactive). Also, the GI50 with IGROV-1 was 16.9 µM (inactive); in the experiment with K562, 13.4 µM (inactive); in the experiment on KM12, 15 µM (inactive); in the experiment with LOX IMVI it was 13.2 µM (inactive); in the experiment with MCF7, 12.5 µM (inactive); with MDA-MB-231, 15.1 µM (inactive). Moreover, the GI50 in the experiment with MDA-MB-435 is 16 µM (inactive); in the experiment on MOLT-4 it was 16.2 µM (inactive); in the experiment with OVCAR-5 it was 17.2 µM (inactive); in the experiment with OVCAR-8 it was 17.5 µM (inactive); with SK-MEL-2, 15.2 µM (inactive); with SK-MEL-5, 15.6 µM (inactive). Besides, the figures for the GI50 in the experiment with SW-620 and in the experiment on UO-31 were 24.7 µM (inactive) and 14.9 µM (inactive), respectively.
In the case of `O=C(c1ccccc1)c1ccc2[nH]c(-c3c(Cl)c(Cl)c(Cl)c(Cl)c3C(=O)N/N=C/c3ccccc3)nc2c1`, the GI50 was 26.1 µM (inactive) in the experiment with 786-0; 12.3 µM (inactive) with CCRF-CEM; 32.1 µM (inactive) in the experiment on HCT-116; 23.2 µM with HCT-15; 23.7 µM (inactive) in the experiment with HOP-92; 37.7 µM (inactive) with Hs-578T. Further, the GI50 was 14.9 µM (inactive) in the experiment with IGROV-1; 27.7 µM (inactive) with K562; 28.2 µM (inactive) in the experiment on KM12; 26.4 µM (inactive) in the experiment with LOX IMVI; 13.6 µM (inactive) in the experiment on MCF7; 19.2 µM (inactive) in the experiment on MDA-MB-231. The GI50 in the experiment on MDA-MB-435 was 9.25 µM (inactive); in the experiment with MOLT-4, 11.2 µM (inactive); with OVCAR-5, 36.9 µM (inactive); with OVCAR-8, 32.2 µM (inactive); with SK-MEL-2, 21.6 µM (inactive); with SK-MEL-5, 14.5 µM (inactive). The GI50 in the experiment with SW-620 is 37.2 µM (inactive); in the experiment with UO-31 it was 27.5 µM (inactive).
`COC(=O)c1cc2c3c(cc(NCCN)c2[nH]1)N(C(=O)c1cc2cc(OC)c(OC)c(OC)c2[nH]1)CC3CCl` (stereo not given): the GI50 in the experiment with 786-0 is 0.0423 µM (active); in the experiment with CCRF-CEM, 0.0174 µM (active); in the experiment with HCT-116, 0.0198 µM (active); in the experiment with HCT-15 it was 0.573 µM; in the experiment with HOP-92 it was 0.0703 µM (active); in the experiment on Hs-578T, 0.049 µM (active). Also, the GI50 was 0.012 µM (active) in the experiment with IGROV-1; 0.0247 µM (active) in the experiment on K562; 0.205 µM (active) in the experiment with KM12; 0.0186 µM (active) in the experiment with LOX IMVI; 0.014 µM (active) with MCF7; 0.0638 µM (active) with MDA-MB-231. Also, the GI50 in the experiment with MDA-MB-435 was 0.152 µM (active); in the experiment on MOLT-4 it was 0.0251 µM (active); in the experiment on OVCAR-5, 0.0393 µM (active); in the experiment with OVCAR-8, 0.109 µM (active); with SK-MEL-2, 0.0628 µM (active); in the experiment on SK-MEL-5 it was 0.0313 µM (active). Moreover, the GI50 with SW-620 was 0.0369 µM (active); with UO-31, 0.192 µM (active).
For the compound `C(=C\c1ccccc1)/C=N/c1nc2cc3sc(/N=C/C=C/c4ccccc4)nc3cc2s1`, the GI50 in the experiment with 786-0 is > 100 µM (inactive); in the experiment with CCRF-CEM, 8.47 µM (inactive); with HCT-116 it was 28.5 µM (inactive); in the experiment on HCT-15, 33.7 µM; in the experiment on HOP-92 it was > 100 µM (inactive); with Hs-578T, > 100 µM (inactive). For the same compound, the GI50 with IGROV-1 is > 63.2 µM (inactive); in the experiment on K562, 43.3 µM (inactive); in the experiment with KM12 it was 76.2 µM (inactive); with LOX IMVI, 29.9 µM (inactive); in the experiment with MCF7 it was 12.6 µM (inactive); in the experiment with MDA-MB-231, > 100 µM (inactive). Further, the GI50 in the experiment on MDA-MB-435 was > 100 µM (inactive); in the experiment on MOLT-4, 7.35 µM (inactive); in the experiment on OVCAR-5, > 78.7 µM (inactive); in the experiment with OVCAR-8, > 92.3 µM (inactive); with SK-MEL-2 it was > 100 µM (inactive); in the experiment with SK-MEL-5, > 28.9 µM (inactive). Besides, the GI50 was > 45.3 µM (inactive) in the experiment on SW-620 and 34.4 µM (inactive) in the experiment with UO-31.
`COc1c2ccoc2nc2c(OC)c(OCC(O)C(C)(C)O)ccc12` (stereo not given) [EVOXINE]: the GI50 in the experiment with 786-0 is > 100 µM (inactive); in the experiment on CCRF-CEM, > 100 µM (inactive); in the experiment with HCT-116, > 100 µM (inactive); in the experiment on HCT-15, more than 100 µM; with HOP-92, > 100 µM (inactive); in the experiment with Hs-578T, > 100 µM (inactive). Besides, the GI50 in the experiment on IGROV-1 is 70 µM (inactive); with K562, > 100 µM (inactive); with KM12, > 100 µM (inactive); with LOX IMVI, > 100 µM (inactive); in the experiment on MCF7, > 100 µM (inactive); in the experiment with MDA-MB-231 it was 75.3 µM (inactive). The GI50 in the experiment with MDA-MB-435, in the experiment with MOLT-4, in the experiment on OVCAR-5, in the experiment on OVCAR-8, in the experiment with SK-MEL-2 and in the experiment on SK-MEL-5 was > 100 µM (inactive) in each case. In addition, the GI50 in the experiment with SW-620 and in the experiment on UO-31 was > 100 µM (inactive) each time.

These data come from ChEMBL document CHEMBL1201862, “PubChem BioAssay data set” (2004).
